Target: T1, bromodomain of BRD9 (GST-BRD9 aa 130-259) / H3 K9/14/18/23Ac(1-28) peptide (Homo sapiens, UniProt Q9H8M2)
T1 construct: The protein corresponding to amino acids 130-259 that contains the bromodomain of BRD9; made in house; host or cells: E. coli
T1 sequence (Q9H8M2 130-259): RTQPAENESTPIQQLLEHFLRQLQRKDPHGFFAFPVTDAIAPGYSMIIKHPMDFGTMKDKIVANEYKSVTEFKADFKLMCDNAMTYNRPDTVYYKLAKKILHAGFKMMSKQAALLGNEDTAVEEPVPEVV
Test: BRD9-H3 tetra-acetylated Peptide Inhibition AlphaScreen
Format: binding
Description: Biological Methods BRD9-H3 tetra-acetylated Peptide Inhibition AlphaScreen
This assay is used to identify compounds which inhibit the interaction of the bromodomain of BRD9 with a tetra-acetylated peptide based on the sequence of histone H3 (H3 K9/14/18/23Ac (1-28)).
Compounds are dispensed onto assay plates using an Access Labcyte Workstation with the Labcyte Echo 550 from a DMSO solution. For the chosen highest concentration of 100 μM, 150 nl of compound solution are transferred from a 10 mM DMSO solution. […] DMSO is added such that every well has a total of 150 nl of DMSO.
Each plate contains negative controls where biotinylated H3 K9/14/18/23Ac(1-28) peptide and GST-BRD9 are left out and replaced by assay buffer. Negative control values are entered as low basis value when using the software GraphPad Prism for calculations.

In order of falling IC50:
1. CN1CCN(C(=O)c2ccc(-c3nn(C)c(=O)c4ccccc34)cc2)CC1 [II-17]  16300 nM
2. Cc1cc(-c2ccc(N3CCOCC3)cc2)c(C)n(C)c1=O [Compound I-215]  9200 nM
3. Cc1c(-c2ccc(C(N)=O)cc2)cn(C)c(=O)c1C [Compound I-213]  5320 nM
4. CN1CCN(C(=O)c2ccc(-c3cn(C)c(=O)c4cncnc34)cc2)CC1 [II-51]  5270 nM
5. CN1CCN(C(=O)c2ccc(-c3cn(C)c(=O)c4ncccc34)cc2)CC1 [II-50]  4850 nM
6. Cc1cc(-c2ccc(C(=O)N3CCN(C)CC3)cc2)c(C)n(C)c1=O [Compound I-214]  3210 nM
7. Cc1cc(-c2cn(C)c(=O)c3ccccc23)ccc1C(N)=O [II-49]  3140 nM
8. COc1cc(-c2cn(C)c(=O)c3ncccc23)c(OC)cc1CN(C)C [II-22]  2140 nM
9. Cn1cc(-c2ccc(CN)cc2)c2ccccc2c1=O [II-48]  1550 nM
10. Cn1cc(-c2ccc(C(N)=O)cc2)c2ccncc2c1=O [II-9]  1400 nM
11. Cn1cc(-c2ccc(C(=O)N3CCNCC3)cc2)c2cccnc2c1=O [II-14]  1380 nM
12. Cc1cc(-c2cn(C)c(=O)c3ccccc23)ccc1C(=O)N(C)C [II-47]  1190 nM
13. C[C@H](N)c1ccc(-c2cn(C)c(=O)c3ccccc23)cc1 [II-46]  1010 nM
14. Cc1cc(-c2cn(C)c(=O)c3ccccc23)ccc1C(=O)N1CCN(C)CC1 [II-45]  981 nM
15. CN1CCN(C(=O)c2ccc(-c3cn(C)c(=O)c4cnccc34)cc2)CC1 [II-8]  953 nM
16. C[C@@H](N)c1ccc(-c2cn(C)c(=O)c3ccccc23)cc1 [II-44]  917 nM
17. CN(C)Cc1ccc(-c2cn(C)c(=O)c3ccccc23)cc1 [II-5]  916 nM
18. CN1CCN(Cc2ccc(-c3cn(C)c(=O)c4ccccc34)cc2)CC1 [II-43]  890 nM
19. Cc1cc(-c2ccc3c(c2)CN(C)C3)c(C)n(C)c1=O [Compound I-212]  750 nM
20. COc1cc(-c2cn(C)c(=O)c3cccnc23)c(OC)cc1CN(C)C [II-26]  630 nM
21. COc1cc(-c2cn(C)c(=O)c3ccncc23)c(OC)cc1CN(C)C [II-24]  609 nM
22. Cn1cc(-c2ccc(C(=O)N3CCNCC3)cc2)c2ncncc2c1=O [II-13]  589 nM
23. Cn1cc(-c2ccc(C(=O)N3CCC3)cc2)c2cc[nH]c2c1=O [III-10]  487 nM
24. COc1cc(-c2cc(C)c(=O)n(C)c2)ccc1CN1CC(N(C)C)C1 [Compound I-206, 5-[4-(3-Dimethylamino-azetidin-1-ylmethyl)-3-methoxy-phenyl]-1,3-dimethyl-1H-pyridin-2-one]  479 nM
25. Cc1cc(-c2ccc3c(c2)CCN(C)C3)c(C)n(C)c1=O [Compound I-211]  468 nM
26. Cn1cc(-c2ccc(C(=O)N3CCNCC3)cc2)c2ccccc2c1=O [II-42, 2-Methyl-4-[4-(piperazine-1-carbonyl)-phenyl]-2H-isoquinolin-1-one]  439 nM
27. CN1CCN(C(=O)c2ccc(-c3cn(C)c(=O)c4[nH]ccc34)cc2)CC1 [III-9]  391 nM
28. COc1cc(-c2cn(C)c(=O)c3cncnc23)c(OC)cc1CN(C)C [II-12]  344 nM
29. Cc1cc(-c2cn(C)c(=O)c3[nH]ccc23)ccc1C(=O)N1CCN(C)CC1 [III-8]  340 nM
30. Cc1cc(-c2ccc3c(c2)CCN(C)C3)cn(C)c1=O [Compound I-210]  302 nM
31. COc1cc(-c2cc(C)c(=O)n(C)c2)cc(C)c1CN [Compound I-202, 5-(4-Aminomethyl-3-methoxy-5-methyl-phenyl)-1,3-dimethyl-1H-pyridin-2-one]  268 nM
32. Cc1cc(-c2ccc(CN3CCN(C)CC3)c(N(C)C)c2)cn(C)c1=O [Compound I-204, 5-[3-Dimethylamino-4-(4-methyl-piperazin-1-ylmethyl)-phenyl]-1,3-dimethyl-1H-pyridin-2-one]  231 nM
33. Cc1cc(-c2ccc3c(c2)CN(C)C3)cn(C)c1=O [Compound I-209, 1,3-Dimethyl-5-(2-methyl-2,3-dihydro-1H-isoindol-5-yl)-1H-pyridin-2-one]  218 nM
34. CN(C)Cc1ccc(-c2cn(C)c(=O)c3ccc(Cn4cccn4)cc23)cc1 [II-20]  178 nM
35. COc1cc(-c2cn(C)c(=O)c3ccccc23)ccc1CN(C)C [II-41, 4-(4-Dimethylaminomethyl-3-methoxy-phenyl)-2-methyl-2H-isoquinolin-1-one]  126 nM
36. COc1cc(-c2cc(C)c(=O)n(C)c2)cc(OC)c1CN(C)C1CN(C)C1 [Compound I-208, 5-(3,5-Dimethoxy-4-{[methyl-(1-methyl-azetidin-3-yl)-amino]-methyl}-phenyl)-1,3-dimethyl-1H-pyridin-2-one]  114 nM
37. COc1cc(-c2cn(C)c(=O)c3[nH]ccc23)ccc1C(=O)N1CCN(C)CC1 [III-7]  95 nM
38. COc1cc(-c2cc(C)c(=O)n(C)c2)cc(OC)c1CN(C)C1CNC1 [Compound I-207, 5-{4-[(Azetidin-3-yl-methyl-amino)-methyl]-3,5-dimethoxy-phenyl}-1,3-dimethyl-1H-pyridin-2-one]  93 nM
39. Cn1cc(-c2ccc(C(=O)N3CCNCC3)cc2)c2cc[nH]c2c1=O [III-6]  81 nM
40. COc1cc(-c2cc(C)c(=O)n(C)c2)cc(OC)c1CNC1CN(C)C1 [Compound I-205, 5-{3,5-Dimethoxy-4-[(1-methyl-azetidin-3-ylamino)-methyl]-phenyl}-1,3-dimethyl-1H-pyridin-2-one]  69 nM
41. Cc1cc(-c2cn(C)c(=O)c3[nH]ccc23)ccc1C(=O)N1CCNCC1 [III-5]  68 nM
42. COc1cc(-c2cn(C)c(=O)c3[nH]ccc23)ccc1CN1C[C@@H]2CC1CN2C [III-4]  62 nM
43. COc1cc(-c2cn(C)c(=O)c3[nH]ccc23)ccc1CN1C[C@@H]2CC1CN2 [III-3]  46 nM
44. COc1cc(-c2cn(C)c(=O)c3cncnc23)cc(OC)c1CN1CC(O)C1 [II-11]  42 nM
45. COc1cc(-c2cn(C)c(=O)c3[nH]ccc23)ccc1CN1C[C@H]2C[C@@H]1CN2C [III-2, 4-[3-Methoxy-4-((1R,4R)-5-methyl-2,5-diaza-bicyclo[2.2.1]hept-2-ylmethyl)-phenyl]-6-methyl-1,6-dihydro-pyrrolo[2,3-c]pyridin-7-one]  39 nM
46. COc1cc(-c2cn(C)c(=O)c3ccc(Cn4cccn4)cc23)cc(OC)c1CN(C)C [II-19]  31 nM
47. COc1cc(-c2cn(C)c(=O)c3cnccc23)cc(OC)c1CNC1CNC1 [II-32]  24 nM
48. COc1cc(-c2cn(C)c(=O)c3cncnc23)cc(OC)c1CNC1CNC1 [II-33]  23 nM
49. COc1cc(-c2cn(C)c(=O)c3cnccc23)cc(OC)c1CN1CC(N)C1 [II-31]  11 nM
50. COc1cc(-c2cn(C)c(=O)c3ccccc23)cc(OC)c1CN1CC(O)C1 [II-1, 4-[4-(3-Hydroxy-azetidin-1-ylmethyl)-3,5-dimethoxy-phenyl]-2-methyl-2H-isoquinolin-1-one]  8 nM
51. COc1cc(-c2cn(C)c(=O)c3cnccc23)cc(OC)c1CN1CC(O)C1 [II-34]  8 nM
52. COc1cc(-c2cn(C)c(=O)c3cncnc23)cc(OC)c1CN1CC(N)C1 [II-30, 8-[4-(3-Amino-azetidin-1-ylmethyl)-3,5-dimethoxy-phenyl]-6-methyl-6H-pyrido[4,3-d]pyrimidin-5-one]  5 nM

Target: T2, bromodomain of BRD9 (GST fusion) / acetylated histone H4 peptide (BET Bromodomain Ligand) (Homo sapiens, UniProt Q9H8M2)
T2 construct: A GST fusion protein of the bromodomain of BRD9; purchased BPS Biosciences #32519
T2 sequence (Q9H8M2 136-240 limits assumed): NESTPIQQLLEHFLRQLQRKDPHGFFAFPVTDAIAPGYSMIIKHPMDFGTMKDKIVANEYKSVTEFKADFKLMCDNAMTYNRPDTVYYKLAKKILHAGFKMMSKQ
Test: BRD9-H4 Tetraacetylated Peptide Inhibition AlphaScreen
Format: binding
Description: BRD9-H4 Tetraacetylated Peptide Inhibition AlphaScreen
This assay is used to identify compounds which inhibit the interaction of the bromodomain of BRD9 with a tetra-acetylated peptide based on the sequence of histone H4 (termed the “BET Bromodomain ligand” as purchased from BPS Biosciences).
A GST fusion protein of the bromodomain of BRD9 and an acetylated histone H4 peptide (the “BET Bromodomain Ligand” are purchased as part of the BRD9 Inhibitor Screening Assay Kit at BPS Biosciences (Cat. Number: #32519)
AlphaScreen Beads (Perkin Elmer):
AlphaLISA Glutathione Acceptor Beads
AlphaScreen Streptavidin Donor Beads
Assay plates: Proxiplate-384 PLUS, white (PerkinElmer)
The assay is done in a darkened room below 100 Lux.
Compounds are dispensed onto assay plates using an Access Labcyte Workstation with the Labcyte Echo 550 from a DMSO solution. For the chosen highest concentration of 100 μM, 150 nl of compound solution are transferred from a 10 mM DMSO solution. A series of 11 concentrations is transferred for each compound at which each concentration is five-fold lower than the previous one (i.e. 100 μM, 20 μM, 4 μM, 0.8 μM, etc). DMSO is added such that every well has a total of 150 nl of DMSO.
15 μl of the resulting mix are added to the assay plates that contain 150 nl of the compounds. After 60 min at room temperature the signal is measured in a PerkinElmer Envision HTS Multilabel Reader using the AlphaScreen specifications from PerkinElmer.
Each plate contains negative controls where biotinylated BET Bromodomain Ligand and GST-BRD9 are left out and replaced by assay buffer. Negative control values are entered as low basis value when using the software GraphPad Prism for calculations.

In order of falling IC50:
1. Cc1ccc(-c2cn(C)c(=O)c(C)n2)cc1NS(C)(=O)=O [Compound I-25]  6580 nM
2. CCn1cc(-c2ccc(C)c(NS(C)(=O)=O)c2)cc(C)c1=O [Compound I-24]  3310 nM
3. Cc1ccc(-c2cc(C)c(=O)n(C)n2)cc1NS(C)(=O)=O [Compound I-26]  2560 nM
4. Cc1ccc(-c2cc(C)c(=O)n(C)c2)cc1NS(C)(=O)=O [Compound I-23, N-[5-(1,5-Dimethyl-6-oxo-1,6-dihydro-pyridin-3-yl)-2-methyl-phenyl]-methanesulfonamide]  609 nM
5. Cc1cc(-c2cccc(OC(F)(F)F)c2)cn(C)c1=O [Compound I-16]  568 nM
6. Cc1ccc(-c2cn(C)c(=O)c(C)c2C)cc1N [Compound I-19]  333 nM
7. Cc1cc(-c2ccc(C(=O)N3CCN(C)CC3)c(F)c2)cn(C)c1=O [Compound I-15]  279 nM
8. Cc1cc(-c2ccc(C(=O)N3CCN(C)CC3)cc2)cn(C)c1=O [Compound I-9]  172 nM
9. Cc1c(-c2ccc(C(=O)N3CCN(C)CC3)cc2)cn(C)c(=O)c1C [Compound I-18]  113 nM
10. Cc1cc(-c2ccc(CN3CCOCC3)cc2)cn(C)c1=O [Compound I-14]  109 nM

Reference: patent US11319318B2, “Pyridinones and isoquinolinones as inhibitors of the bromodomain BRD9” (Boehringer Ingelheim International GmbH, priority 2015, dated 2022)
